Source: paper PMC4813177, “Molecular Recognition of the Catalytic Zinc(II) Ion in MMP-13: Structure-Based Evolution of an Allosteric Inhibitor to Dual Binding Mode Inhibitors with Improved Lipophilic Ligand Efficiencies” (International Journal of Molecular Sciences, 2016)

Target: T1, MMP-13 (Homo sapiens, UniProt P45452)
T1 construct: purchased Reaction Biology Corporation, Malvern, PA, USA (contract assay service)
Experiment: MMP-13 in vitro inhibition assay (FRET peptide substrate)
Assay type: biochemical
Details: for LE (Ligand Efficiency): 1.4(−logIC50)/N, N = number of non-hydrogen atoms; for LLE (lipophilic ligand efficiency): LLE = pIC50 - clogP; for remaining activity at 10 µM: at 10 μM inhibitor concentration, read-out: % Activity (remaining enzyme activity); for remaining activity at 10 µM / IC50: triplicate; for IC50: 10 concentrations starting at 10 μM
Protocol: Consecutively the synthesized compounds were tested for their inhibition activity against MMP-13 in in vitro assays. The values are averaged over triplicate determinations (Table 1).
The substrate used for the determinations was the (5-FAM/QXLTM) FRET peptide. The buffer consisted of 50 mM HEPES at pH 7.5 with 10 mM CaCl2 and 0.01% Brij-35. 0.1 mg/mL BSA was added before use. As a control inhibitor GM6001 was used.

## O=C(O)CCCOc1cccc(CC(=O)Nc2ccc3c(c2)C(=O)N(Cc2ccccc2)C3=O)c1 [Compound 15, 4-(3-{[(2-benzyl-1,3-dioxo-2,3-dihydro-1H-isoindol-5-yl)carbamoyl]methyl}phenoxy)butanoic acid]
  LE (Ligand Efficiency): 0.24
  LLE (lipophilic ligand efficiency): 2.16
  remaining activity at 10 µM: 4.6 ± 0.6%
  IC50: 777 ± 50 nM

## O=C(O)CCCCOc1cccc(CC(=O)Nc2ccc3c(c2)C(=O)N(Cc2ccccc2)C3=O)c1 [Compound 3, 5-(3-{[(2-benzyl-1,3-dioxo-2,3-dihydro-1H-isoindol-5-yl)carbamoyl]methyl}phenoxy)pentanoic acid]
  LE (Ligand Efficiency): 0.27
  LLE (lipophilic ligand efficiency): 2.46
  remaining activity at 10 µM: 2.4 ± 0.1%
  IC50: 134 ± 40 nM

## O=C(Cc1cccc(OCCCO)c1)Nc1ccc2c(c1)C(=O)N(Cc1ccccc1)C2=O [Compound 11, N-(2-benzyl-1,3-dioxo-2,3-dihydro-1H-isoindol-5-yl)-2-[3-(3-hydroxypropoxy)phenyl]acetamide]
  LE (Ligand Efficiency): 0.26
  LLE (lipophilic ligand efficiency): 2.55
  remaining activity at 10 µM: 7.9 ± 0.4%
  IC50: 586 ± 130 nM

## O=C(O)CCOc1cccc(CC(=O)Nc2ccc3c(c2)C(=O)N(Cc2ccccc2)C3=O)c1 [Compound 14, 3-(3-{[(2-benzyl-1,3-dioxo-2,3-dihydro-1H-isoindol-5-yl)carbamoyl]methyl}phenoxy)propanoic acid]
  remaining activity at 10 µM: 15.4 ± 0.3%

## CS(=O)(=O)NC(=O)CCOc1cccc(CC(=O)Nc2ccc3c(c2)C(=O)N(Cc2ccccc2)C3=O)c1 [Compound 17, 3-(3-{[(2-benzyl-1,3-dioxo-2,3-dihydro-1H-isoindol-5-yl)carbamoyl]methyl}phenoxy)-N-methanesulfonylpropanamide]
  remaining activity at 10 µM: 30.5 ± 0.8%

## CNC(=O)CCCCOc1cccc(CC(=O)Nc2ccc3c(c2)C(=O)N(Cc2ccccc2)C3=O)c1 [Compound 5, 5-(3-{[(2-benzyl-1,3-dioxo-2,3-dihydro-1H-isoindol-5-yl)carbamoyl]methyl}phenoxy)-N-methylpentanamide]
  LE (Ligand Efficiency): 0.25
  LLE (lipophilic ligand efficiency): 2.45
  remaining activity at 10 µM: 6.7 ± 0.5%
  IC50: 328 ± 50 nM

## CS(=O)(=O)NC(=O)CCCOc1cccc(CC(=O)Nc2ccc3c(c2)C(=O)N(Cc2ccccc2)C3=O)c1 [Compound 18, 4-(3-{[(2-benzyl-1,3-dioxo-2,3-dihydro-1H-isoindol-5-yl)carbamoyl]methyl}phenoxy)-N-methanesulfonylbutanamide]
  LE (Ligand Efficiency): 0.22
  LLE (lipophilic ligand efficiency): 2.91
  remaining activity at 10 µM: 11.2 ± 0.3%
  IC50: 896 ± 60 nM

## O=C(Cc1cccc(OCCCCCCO)c1)Nc1ccc2c(c1)C(=O)N(Cc1ccccc1)C2=O [Compound 13, N-(2-benzyl-1,3-dioxo-2,3-dihydro-1H-isoindol-5-yl)-2-{3-[(6-hydroxyhexyl)oxy]phenyl}acetamide]
  remaining activity at 10 µM: 33 ± 2.9%

## CS(=O)(=O)NC(=O)CCCCOc1cccc(CC(=O)Nc2ccc3c(c2)C(=O)N(Cc2ccccc2)C3=O)c1 [Compound 4, 5-(3-{[(2-benzyl-1,3-dioxo-2,3-dihydro-1H-isoindol-5-yl)carbamoyl]methyl}phenoxy)-N-methanesulfonylpentanamide]
  LE (Ligand Efficiency): 0.21
  LLE (lipophilic ligand efficiency): 2.53
  remaining activity at 10 µM: 13.8 ± 1.4%
  IC50: 767 ± 80 nM

## O=C(Cc1cccc(OCCCCO)c1)Nc1ccc2c(c1)C(=O)N(Cc1ccccc1)C2=O [Compound 12, N-(2-benzyl-1,3-dioxo-2,3-dihydro-1H-isoindol-5-yl)-2-[3-(4-hydroxybutoxy)phenyl]acetamide]
  LE (Ligand Efficiency): 0.26
  LLE (lipophilic ligand efficiency): 2.22
  remaining activity at 10 µM: 7.6 ± 0.5%
  IC50: 454 ± 200 nM

## O=C(O)CCCCCOc1cccc(CC(=O)Nc2ccc3c(c2)C(=O)N(Cc2ccccc2)C3=O)c1 [Compound 16, 6-(3-{[(2-benzyl-1,3-dioxo-2,3-dihydro-1H-isoindol-5-yl)carbamoyl]methyl}phenoxy)hexanoic acid]
  LE (Ligand Efficiency): 0.25
  LLE (lipophilic ligand efficiency): 1.70
  remaining activity at 10 µM: 2.6 ± 0.3%
  IC50: 280 ± 40 nM

## O=C(Cc1cccc(OCCCCCO)c1)Nc1ccc2c(c1)C(=O)N(Cc1ccccc1)C2=O [Compound 2, N-(2-benzyl-1,3-dioxo-2,3-dihydro-1H-isoindol-5-yl)-2-{3-[(5-hydroxypentyl)oxy]phenyl}acetamide]
  LE (Ligand Efficiency): 0.24
  LLE (lipophilic ligand efficiency): 1.53
  remaining activity at 10 µM: 9.1 ± 0.9%
  IC50: 822 ± 210 nM
